Assay results as given in ChEMBL document CHEMBL1201862, “PubChem BioAssay data set” (2004).
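Cultured in 96-well plates, cells were exposed to test compound for 48 hours across five concentrations. GI50: concentration for 50% inhibition of growth.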 Active and inactive are the calls of the source. No stated cut-off is given here; in the data, active = GI50 up to about 1.1 µM and inactive = higher.

How the values were obtained:
Assay in all cases: inhibition of tumour cell growth, NCI panel, 48 h
[1] = test system: Hs-578T
[2] = test system: EKVX
[3] = test system: CAKI-1
[4] = test system: NCI-H23
[5] = test system: SNB-75
[6] = test system: OVCAR-4
[7] = test system: DMS-273
[8] = test system: K562
[9] = test system: HOP-92
[10] = test system: SNB-19
[11] = test system: SN12C
[12] = test system: 786-0
[13] = test system: A549
[14] = test system: PC-3
[15] = test system: NCI/ADR-RES
[16] = test system: T47D
[17] = test system: RXF 393
[18] = test system: HCT-116
[19] = test system: UO-31

Measured: GI50

CCSc1nc(COC(=O)NC)c(COC(=O)NC)n1C
inactive: [1] > 100 µM | [2] > 100 µM | [3] 49.5 µM | [4] 99.5 µM | [5] > 100 µM | [6] > 75.7 µM | [7] > 94.4 µM | [8] > 68.1 µM | [9] > 80.5 µM | [10] > 100 µM | [11] > 100 µM | [12] 99.5 µM | [13] > 97.5 µM | [14] > 82 µM | [15] > 100 µM | [16] > 100 µM | [17] 42.8 µM | [18] > 100 µM | [19] > 95.9 µM
